Experimental data: ChEMBL document CHEMBL1156829 (Proc Natl Acad Sci U S A, 2008)

Legend:
[1] = system: Plasmodium falciparum; assay: NOVARTIS: Inhibition of Plasmodium falciparum W2 (drug-resistant) proliferation in erythrocyte-based infection assay; format: functional, organism-based; settings: Plasmodium falciparum, W2; read-out: EC50
[2] = NOVARTIS: Cytotoxicity against human hepatocellular carcinoma cell line (Huh7); format: toxicity, cell-based, Huh-7; settings: Huh7 cells (hepatocellular carcinoma cell line)
[3] = system: Plasmodium falciparum; assay: NOVARTIS: Inhibition of Plasmodium falciparum 3D7 (drug-susceptible) proliferation in erythrocyte-based infection assay; format: functional, organism-based; settings: Plasmodium falciparum, 3D7

In the case of CC(=O)Nc1ccc(C(C)=NNc2nc(Nc3cc(C)ccc3C)nc(N3CCOCC3)n2)cc1, the EC50 [1] is reported as 2060 nM, the CC50 [2] is reported as > 10000 nM and the EC50 [3] is reported as > 1250 nM.

Compound CCOc1ccc(Nc2nc(NCc3ccco3)c3ccccc3n2)cc1 has an EC50 [1] of 528 nM, a CC50 [2] of 11600 nM and an EC50 [3] of 288 nM.

In the case of COc1ccc2cc(CNCCCO)c(N3CCN(c4ccc(F)cc4)CC3)nc2c1, the EC50 [1] is reported as 600 nM, the CC50 [2] is reported as 20000 nM and the EC50 [3] is reported as 2990 nM.

For COc1cc(C=CC(=O)Nc2c3c(nn2-c2ccc(F)cc2)CSC3)cc(OC)c1OC, the EC50 [1] was 381 nM, the CC50 [2] was > 100000 nM and the EC50 [3] was 918 nM.

Compound CCCCOc1ccc(N(C(C)=O)C2=C(N3CCCCC3)C(=O)c3ccccc3C2=O)cc1 has an EC50 [1] of 4.14 nM, a CC50 [2] of 54400 nM and an EC50 [3] of 5.64 nM.

In the case of Cc1ccccc1OCCSc1nc2ccc(NC(=O)c3cccs3)cc2s1, the EC50 [1] is reported as 1580 nM, the CC50 [2] is reported as > 100000 nM and the EC50 [3] is reported as 497 nM.

With CC1CCCCN1CCCNc1ncc(C(=O)NCc2ccccc2)c(NCC2CCCCC2)n1 (stereo not given) the EC50 [1] was > 759 nM, the CC50 [2] was > 10000 nM and the EC50 [3] was 582 nM.

In the case of Cc1cccc(-c2cc(C(=O)NC3CCN(Cc4ccccc4)CC3)cc(-n3cnnn3)c2)c1, the EC50 [1] is reported as 570 nM, the CC50 [2] is reported as 50100 nM and the EC50 [3] is reported as 372 nM.

In the case of N#Cc1c2c(c(N3CCN(Cc4ccccc4)CC3)n3c1nc1ccccc13)CCC2, the EC50 [1] is reported as 248 nM, the CC50 [2] is reported as > 100000 nM and the EC50 [3] is reported as 311 nM.

With COc1nc(Nc2ccc(C(C)C)cc2)nc(OC)n1 the EC50 [1] was 935 nM, the CC50 [2] was 56900 nM and the EC50 [3] was 677 nM.

In the case of COc1ccccc1C(c1c(C)n[nH]c1O)c1c(C)n[nH]c1O, the EC50 [1] is reported as > 1100 nM, the CC50 [2] is reported as > 10000 nM and the EC50 [3] is reported as > 1250 nM.

With Cc1cnc(CNc2cc(-c3ccccn3)nc(-c3ccccn3)n2)nc1 the EC50 [1] was 646 nM, the CC50 [2] was > 10000 nM and the EC50 [3] was 465 nM.

With OC(CNCC1CCCO1)Cn1c2ccc(Br)cc2c2cc(Br)ccc21 (stereo not given) the EC50 [1] was 99 nM, the CC50 [2] was 20300 nM and the EC50 [3] was 261 nM.

In the case of C(=C\c1ccccc1)/CNC1CCN(Cc2ccccc2)CC1, the EC50 [1] is reported as 657 nM, the CC50 [2] is reported as > 10000 nM and the EC50 [3] is reported as 995 nM.

For O=C(CSc1nc2ccccc2c(=O)n1CCCN1CCOCC1)Nc1cccc(S(=O)(=O)N2CCCCCC2)c1, the EC50 [1] was 1180 nM, the CC50 [2] was 62100 nM and the EC50 [3] was 470 nM.

In the case of Nc1c(C(=O)Nc2ccc(Br)cc2)sc2nc3c(c(-c4cccs4)c12)CCC3, the EC50 [1] is reported as 776 nM, the CC50 [2] is reported as > 100000 nM and the EC50 [3] is reported as 1040 nM.

In the case of Cn1c(-c2ccc([N+](=O)[O-])cc2)[n+](C)c2ccccc21, the EC50 [1] is reported as 376 nM, the CC50 [2] is reported as > 100000 nM and the EC50 [3] is reported as 1310 nM.

Work on COc1ccc(C2CC(=O)C3=C(C2)NC(C)=C(C(=O)OC2CCCC2)C3c2cccc(Cl)c2)cc1OC (stereo not given) yielded an EC50 [1] of 75.8 nM, a CC50 [2] of 16800 nM and an EC50 [3] of 201 nM.

With CCN1c2ccccc2N=C2C=CC(N)=CC21 (stereo not given) the EC50 [1] was 278 nM, the CC50 [2] was > 10000 nM and the EC50 [3] was 59.6 nM.

With CCOC(=O)Cn1cnc2c(nnn2Cc2ccc(F)cc2)c1=O the EC50 [1] was 160 nM, the CC50 [2] was > 1700 nM and the EC50 [3] was 380 nM.

With CCCCCc1ccc(-c2cn3nc(CCCCC)sc3n2)cc1 the EC50 [1] was > 1250 nM, the CC50 [2] was > 10000 nM and the EC50 [3] was > 921 nM.

With Fc1ccc(-c2c[n+](Cc3ccc(Cl)cc3Cl)c3n2CCC3)cc1 the EC50 [1] was 880 nM, the CC50 [2] was > 100000 nM and the EC50 [3] was 1450 nM.

With Nc1nonc1-n1nnc(C(=O)NN=Cc2cc(Br)cs2)c1-c1ccccc1 the EC50 [1] was 1100 nM, the CC50 [2] was > 100000 nM and the EC50 [3] was 692 nM.

With O=C1CN=C(c2ccccc2Cl)c2cc(Cl)ccc2N1Cc1cccc([N+](=O)[O-])c1 the EC50 [1] was > 4670 nM, the CC50 [2] was > 100000 nM and the EC50 [3] was > 4470 nM.

Compound COc1cccc(-c2ccc(O)c(CN3CCC(Cc4ccccc4)CC3)c2)n1 has an EC50 [1] of 86.1 nM, a CC50 [2] of 38400 nM and an EC50 [3] of 306 nM.

In the case of CC(C)CNC(=O)c1cnc(NCCC2CCCN2C)nc1NCCc1ccccc1 (stereo not given), the EC50 [1] is reported as > 1250 nM, the CC50 [2] is reported as > 10000 nM and the EC50 [3] is reported as 699 nM.

With COc1ccc(C2SCCN2S(=O)(=O)c2cccc([N+](=O)[O-])c2)cc1OC (stereo not given) the EC50 [1] was > 676 nM, the CC50 [2] was > 10000 nM and the EC50 [3] was > 1250 nM.

In the case of CCCCCCOc1ccc(NC(=O)c2cccs2)cc1, the EC50 [1] is reported as 972 nM, the CC50 [2] is reported as > 100000 nM and the EC50 [3] is reported as 396 nM.

COc1ccc2[nH]c3c(c2c1)CCNC3c1ccc(OC)c(CSc2nnc(-c3ccccc3)o2)c1 (stereo not given) gave an EC50 [1] of 1990 nM, a CC50 [2] of 7420 nM and an EC50 [3] of 4050 nM.

In the case of CN1CCCC1CCNc1ncc(C(=O)NCCc2ccccc2)c(NCC2CCCCC2)n1 (stereo not given), the EC50 [1] is reported as 1340 nM, the CC50 [2] is reported as > 10000 nM and the EC50 [3] is reported as 598 nM.

In the case of COc1ccc(NC(=O)CCCCCn2c(SCc3cc(=O)oc4cc(O)ccc34)nc3ccsc3c2=O)cc1, the EC50 [1] is reported as 2870 nM, the CC50 [2] is reported as > 100000 nM and the EC50 [3] is reported as 5820 nM.

With CC(C)N(CC(=O)Nc1cc(C(C)(C)C)nn1-c1ccc(Cl)c(Cl)c1)C(=O)c1ccc(Cl)c(Cl)c1 the EC50 [1] was 356 nM, the CC50 [2] was > 10000 nM and the EC50 [3] was 1010 nM.

In the case of C=Cc1cc2ccccc2c2cc3c(cc12)C[N+](C)(C)C3, the EC50 [1] is reported as 974 nM, the CC50 [2] is reported as > 100000 nM and the EC50 [3] is reported as 654 nM.

With COCCn1c(SCC(=O)c2ccc(C)cc2C)nnc1-c1ccco1 the EC50 [1] was 295 nM, the CC50 [2] was > 10000 nM and the EC50 [3] was > 868 nM.

For C=CC1CN2CCC1CC2C(OC(C)=O)c1ccnc2ccc(OC)cc12 (stereo not given), the EC50 [1] was 213 nM, the CC50 [2] was > 100000 nM and the EC50 [3] was 240 nM.
